Columns and labels:
ACCX5M1 PDX tumors = assay: ACC patient-derived xenograft (PDX) model, daily oral MBZ; format: in vivo, mice; conditions: 50 or 200 mg/kg daily oral
Description: (§1) The effectiveness of mebendazole can be assayed in vivo using a patient derived xenograft mouse model. In patient derived xenograft mice, cancerous cells isolated from a cancer patient are implanted into an immunodeficient mouse, and allowed to form tumors. The mice are then administered mebendazole, and the effect on tumor size and mouse viability is assayed. As xenograft cancers can be implanted from a variety of patient sources, the effectiveness of mebendazole treatment on multiple cancers can be assayed in this manner. Human cancer cell lines such as those tested in vitro can similarly be used in mouse xenograft tumor models.
(§2) Despite a deepening understanding of the molecular events that lead to sustained tumor growth, there are currently no approved therapies for ACC. Identification of therapies for ACC has been hampered by the lack of ACC cell lines and transgenic mouse models. To circumvent these issues, the activity of MBZ was tested in several ACC patient-derived xenograft (PDX) models. Athymic nude mice were implanted subcutaneously with PDX tumors and treatment was initiated when tumors reached a size of 125-300 mm^3. Mice were randomized into three treatment groups to receive daily treatment with vehicle or MBZ at either 50 or 200 mg/kg for the duration of the study. Tumor size was measured twice weekly.

ACCX6 PDX tumors = assay: as above; format: in vivo, mice; conditions: for median survival: vehicle 42 days
Description: as §1, §2

ACCX9 PDX tumors = assay: as above; format: in vivo, mice; conditions: for median survival: vehicle 29.5 days
Description: as §1, §2

COLO-205 cells = assay: MBZ vs HA-PLGA-MBZ cell viability IC50 (Cell Titer Glo); format: cell-based; conditions: Homo sapiens, 72 hour incubation
From the text: (§3) An IC50 for each treatment was established using the PRISM software.

HCT-116 cells = assay: as above; format: cell-based; conditions: Homo sapiens, 72 hour incubation
From the text: as §3

NCI-H295R cells = assay: as above; format: cell-based; conditions: Homo sapiens, 72 hour incubation
From the text: as §3

SKOV-3 cells = assay: as above; format: cell-based; conditions: Homo sapiens, SK-OV-3, 72 hour incubation
From the text: as §3

[1] = both the 50 and 200 mg/kg dose levels

COC(=O)Nc1nc2ccc(C(=O)c3ccccc3)cc2[nH]1 [MBZ, methyl N-(6-benzoyl-1H-benzimidazol-2-yl)carbamate]
tumor growth (ACCX5M1 PDX tumors): did not inhibit tumor growth
median survival (ACCX6 PDX tumors; 50 mg/kg daily oral): 95.5 days
median survival (ACCX6 PDX tumors; 200 mg/kg daily oral): 64.5 days
tumor growth compared to vehicle (ACCX6 PDX tumors; [1]): Inhibition of tumor growth
tumor volume (ACCX6 PDX tumors; [1]): decrease in tumor volume
median survival (ACCX9 PDX tumors; 50 mg/kg daily oral, not statistically significant): 33 days
tumor volume (ACCX9 PDX tumors; 200 mg/kg): decrease in tumor volume
median survival (ACCX9 PDX tumors; 200 mg/kg daily oral): 38 days
anti-tumor activity (ACCX9 PDX tumors; highest dose of 200 mg/kg): statistically significant anti-tumor activity
IC50 (COLO-205 cells): 0.27 µM
IC50 (HCT-116 cells): 0.32 µM
IC50 (NCI-H295R cells): 0.33 µM
IC50 (SKOV-3 cells): 0.68 µM

From patent US20190175560A1, “MEBENDAZOLE CANCER THERAPIES AND METHODS OF USE” (Shepherd Therapeutics, Inc., priority 2017, published 2019)
